Experimental data reported in patent US6818663B2, “Diaminothiazoles” (Hoffmann-La Roches, priority 2002, dated 2004).

Key:
[1] = biological target: human cyclin D1-CDK4 (Homo sapiens, UniProt P11802); assay: FlashPlate kinase assay, cyclin D1-CDK4, Rb substrate; assay type: biochemical; details: recombinant cyclin D1-CDK4, Rb phosphorylation, 1 μM ATP
Method: (§1) To determine inhibition of Cdk4, Cdk2 and Cdk1 activity, kinase assays were conducted using FlashPlate™ assays (NEN™-Life Science Products). FlashPlate assays were performed using recombinant human cyclin B-CDK1, human cyclin E-CDK2 or human cyclin D1-CDK4 complexes. GST-cyclinE (GST-cycE), CDK2, GST-cyclinB (GST-cycB), CDK1, GST-CDK4 and cyclin D1 (cycD1) cDNA clones in baculovirus vectors were provided by Dr. W. Harper at the Baylor College of Medicine, Houston, Tex. Proteins were co-expressed in High Five™ insect cells and the complex was purified on glutathione Sepharose resin (Pharmacia, Piscataway, N.J.) as previously described (Harper, J. W. et al. Cell 1993, 75, 805-816). A 6×-Histidine tagged truncated form of retinoblastoma (Rb) protein (amino acid 386-928) was used as the substrate for the cycD1-CDK4, cycB-CDK1 and the cycE-CDK2 assays (the expression plasmid was provided by Dr. Veronica Sullivan, Department of Molecular Virology, Roche Research Centre, Welwyn Garden City, United Kingdom). The Rb protein is a natural substrate for phosphorylation by CDK4, CDK2 and CDK1 (see Herwig and Strauss Eur. J. Biochem. Vol. 246 (1997) pp. 581-601 and the references cited therein).
(§2) The expression of the 62 Kd protein was under the control of an IPTG inducible promoter in an M15 E. coli strain. Cells were lysed by sonication and purification was carried out by binding lysates at pH 8.0 to a Ni-chelated agarose column pretreated with 1 mM imidazole. The resin was then washed several times with incrementally decreasing pH buffers to pH 6.0, and eluted with 500 mM imidazole. Eluted protein was dialysed against 20 mM HEPES pH 7.5, 30% glycerol, 200 mM NaCl, and 1 mM DTT. Purified Rb fusion protein stocks were quantitated for protein concentration, aliquoted, and stored at −70° C.
(§3) For all three kinase assays reported herein, 96-well FlashPlates were coated with Rb protein at 10 μg/ml, using 100 μl per well. Plates were incubated at 4° C. overnight or at room temperature for 3 hours on a shaker. To control for nonspecific phosphorylation, one row of wells was coated with 100 μl/well coating buffer (20 mM HEPES, 0.2 M NaCl). Plates were then washed twice with wash buffer (0.01% Tween 20 in phosphate-buffered saline). Compounds to be tested (“test compounds”) were added to the wells at 5×final concentration. Reactions were initiated by immediate addition of 40 μl reaction mix (25 mM HEPES, 20 mM MgCl2, 0.002% Tween 20, 2 mM DTT, 1 μM ATP, 4 nM ^33P-ATP) and a sufficient amount of enzyme to give counts that were at least 10-fold above background. Plates were incubated at room temperature on a shaker for 30 minutes. Plates were washed four times with the wash buffer, sealed, and counted on the TopCount scintillation counter (Packard Instrument Co., Downers Grove, Ill.]. The percent inhibition of Rb phosphorylation, which is a measure of the inhibition of CDK activity, was determined according to the following formula: [formula]
(§4) where “test compound” refers to the average counts per minute of the test duplicates, “nonspecific” refers to the average counts per minute when no CyclinD/Cdk4, etc., was added, and “total” refers to the average counts per minute when no compound was added. The IC50 value is the concentration of test compound that reduces by 50% the protein-kinase induced incorporation of the radiolabel under the test conditions described.

[2] = biological target: human cyclin E-CDK2 (Homo sapiens, UniProt P24941); assay: FlashPlate kinase assay, cyclin E-CDK2, Rb substrate; assay type: biochemical; details: recombinant cyclin E-CDK2, Rb phosphorylation, 1 μM ATP
Method: as §1, §2, §3, §4

[3] = biological target: human cyclin B-CDK1 (Homo sapiens, UniProt P06493); assay: FlashPlate kinase assay, cyclin B-CDK1, Rb substrate; assay type: biochemical; details: recombinant cyclin B-CDK1, Rb phosphorylation, 1 μM ATP
human cyclin B-CDK1, sequence (P06493 whole entry): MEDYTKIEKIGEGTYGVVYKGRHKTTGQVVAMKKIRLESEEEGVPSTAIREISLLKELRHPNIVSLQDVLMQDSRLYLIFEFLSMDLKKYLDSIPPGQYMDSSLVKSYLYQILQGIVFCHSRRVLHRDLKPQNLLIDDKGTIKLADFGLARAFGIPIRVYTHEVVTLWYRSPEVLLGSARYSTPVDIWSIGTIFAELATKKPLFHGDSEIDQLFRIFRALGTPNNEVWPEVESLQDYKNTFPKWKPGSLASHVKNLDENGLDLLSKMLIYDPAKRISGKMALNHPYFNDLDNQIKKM
human cyclin B-CDK1, sequence (P14635 whole entry partner): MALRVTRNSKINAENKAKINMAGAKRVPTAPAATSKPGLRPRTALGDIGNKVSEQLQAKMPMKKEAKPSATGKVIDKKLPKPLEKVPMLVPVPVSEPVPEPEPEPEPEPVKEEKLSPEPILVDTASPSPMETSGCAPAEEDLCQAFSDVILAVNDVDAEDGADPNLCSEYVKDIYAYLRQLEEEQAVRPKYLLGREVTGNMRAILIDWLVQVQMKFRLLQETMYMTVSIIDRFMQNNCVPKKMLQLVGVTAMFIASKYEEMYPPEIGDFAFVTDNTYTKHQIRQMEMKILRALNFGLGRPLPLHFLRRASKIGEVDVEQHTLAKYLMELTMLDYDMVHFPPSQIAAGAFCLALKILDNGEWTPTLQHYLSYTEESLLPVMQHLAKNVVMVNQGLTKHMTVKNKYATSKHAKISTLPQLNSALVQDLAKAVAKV
Method: as §1, §2, §3, §4

[4] = tested on: HCT116, a colorectal carcinoma cell line; assay: Tetrazolium dye proliferation assay (MTT assay); assay type: cell-based; details: Homo sapiens, HCT-116, HCT116 cells, inhibition of cell proliferation
Method: Proliferation was evaluated by the tetrazolium dye assay according to the procedure of Denizot and Lang (Denizot, F. and Lang, R. J Immunol Methods 1986, 89, 271-277). The cell line used was HCT116, a colorectal carcinoma cell line obtained from the American Type Cell Culture Collection (ATCC; Rockville, Md.). The cells were grown in McCoy's 5A medium supplemented with 10% FCS and L-glutamine.
Cells were plated at the appropriate seeding density to give logarithmic growth over the course of the assay in a 96-well tissue culture plate. Plates were incubated overnight at 37° C. in a humidified incubator with 5% CO2. The next day, test compounds were serially diluted to four times the final concentration in the appropriate medium containing 1.2% DMSO. One-fourth final volume of each dilution was added in duplicate to the plates containing cells. The same volume of 1.2% DMSO in medium was added to a row of “control wells” such that the final concentration of DMSO in each well was 0.3%. Wells to which no cells were added served as the “blank.” Wells to which no inhibitor was added served as “no inhibitor control.” The plates were) returned to the incubator, and at set time points (determined by their growth curves) plates were analyzed as described below.
3-(4,5-dimethylthiazole-2-yl)-2,5-diphenyl-2H-tetrazolium bromide (thiazolyl blue; MTT; Sigma) was added to each well to yield a final concentration of 1 mg/ml. Plates were returned to the incubator for 2.5-3 hours at 37° C. The MTT-containing medium was removed and the resulting formazan metabolite was solubilized in 100% ethanol with shaking for 15 minutes at room temperature. Absorbance readings were taken in a microtiter plate reader (Dynatech and Molecular Devices plate readers were used interchangeably) at a wavelength of 570 nm with a 650 nm reference. Percent inhibition (% INH) is calculated by subtracting the absorbance of the blank well from all wells, then subtracting the ratio of the average absorbance of each test duplicate (SAVE) by the average of the controls (CAVE) from 1.00. The final number is then multiplied by 100 (% INH=(1.00−SAVE/CAVE)×100). The concentration at which 50% inhibition of cell proliferation is obtained (the IC50) is determined from the linear regression of a plot of the logarithm of the concentration versus percent inhibition.

human cyclin D1-CDK4, sequence (P11802 whole entry): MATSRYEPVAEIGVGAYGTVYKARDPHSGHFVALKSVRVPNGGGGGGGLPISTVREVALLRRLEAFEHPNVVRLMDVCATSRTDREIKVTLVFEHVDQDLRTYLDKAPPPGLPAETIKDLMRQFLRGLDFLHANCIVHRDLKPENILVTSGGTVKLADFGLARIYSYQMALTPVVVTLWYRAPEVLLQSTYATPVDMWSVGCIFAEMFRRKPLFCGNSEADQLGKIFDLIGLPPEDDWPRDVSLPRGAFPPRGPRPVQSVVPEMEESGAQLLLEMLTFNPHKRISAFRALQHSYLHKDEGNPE
human cyclin D1-CDK4, sequence (P24385 whole entry partner): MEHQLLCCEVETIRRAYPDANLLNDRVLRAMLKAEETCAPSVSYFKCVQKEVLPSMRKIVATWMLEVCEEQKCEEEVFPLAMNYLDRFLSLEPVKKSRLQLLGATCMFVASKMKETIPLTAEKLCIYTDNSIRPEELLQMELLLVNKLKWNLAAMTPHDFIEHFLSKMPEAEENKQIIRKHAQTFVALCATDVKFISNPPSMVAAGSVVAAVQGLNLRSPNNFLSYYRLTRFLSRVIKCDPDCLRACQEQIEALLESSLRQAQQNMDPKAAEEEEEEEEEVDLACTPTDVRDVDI

Row | Compound | IC50 [1] [µM] | IC50 [2] [µM] | IC50 [3] [µM] | IC50 [4] [µM]
1 | C[C@H](COc1ccc(Nc2nc(N)c(C(=O)c3cccc(F)c3)s2)cc1)N(C)C [Example 40, (R)-[4-Amino-2-[4-(2-dimethylamino-propoxy)-phenylamino]-thiazol-5-yl]-(3-fluoro-phenyl)-methanone] | 0.087 | 1.01 | 0.581 | 0.346
2 | C[C@H](COc1ccc(Nc2nc(N)c(C(=O)c3cccc(F)c3)s2)cc1)N1CCCC1 [Example 41, (R)-[4-Amino-2-[4-(2-pyrrolidin-1-yl-propoxy)-phenylamino]-thiazol-5-yl]-(3-fluoro-phenyl)-methanone] | 0.063 | 1.04 | 0.435 | 0.669
3 | CCN1CCC(Oc2ccc(Nc3nc(N)c(C(=O)c4cccc(F)c4)s3)cc2)C1 (centres unmarked) [Example 42, [4-Amino-2-[4-(1-ethyl-pyrrolidin-3-yloxy)-phenylamino]-thiazol-5-yl]-(3-fluoro-phenyl)-methanone] | 0.057 | 0.496 | 0.298 | 0.859
4 | CCN1CCCC(Oc2ccc(Nc3nc(N)c(C(=O)c4cccc(F)c4)s3)cc2)C1 (centres unmarked) [Example 43, [4-Amino-2-[4-(1-ethyl-piperidin-3-yloxy)-phenylamino]-thiazol-5-yl]-(3-fluoro-phenyl)-methanone] | 0.059 | 1.15 | 0.7 | 0.76
5 | CN1CCC[C@H]1COc1ccc(Nc2nc(N)c(C(=O)c3cccc(F)c3)s2)cc1 [Example 44, (S)-[4-Amino-2-[4-(1-methyl-pyrrolidin-2-ylmethoxy)-phenylamino]-thiazol-5-yl]-(3-fluoro-phenyl)-methanone] | 0.065 | 1.27 | 0.594 | 0.39
6 | Nc1nc(Nc2ccc(OC3CCNC3)cc2)sc1C(=O)c1cccc(F)c1 (centres unmarked) [Example 45, [4-Amino-2-[4-(pyrrolidin-3-yloxy)-phenylamino]-thiazol-5-yl]-(3-fluoro-phenyl)-methanone] | 0.039 | 0.589 | 0.158 | 1.24
7 | Cc1cccc(C(=O)c2sc(Nc3ccc(OCCN(C)C)cc3)nc2N)c1 [Example 50, [4-Amino-2-[4-(2-dimethylamino-ethoxy)-phenylamino]-thiazol-5-yl]-m-tolyl-methanone] | 0.06 | 3.36 | 1.7 | 1.04
8 | Cc1cccc(C(=O)c2sc(Nc3ccc(OCCN4CCCC4)cc3)nc2N)c1 [Example 51, [4-Amino-2-[4-(2-pyrrolidin-1-yl-ethoxy)-phenylamino]-thiazol-5-yl]-m-tolyl-methanone] | 0.053 | 2.93 | 1.06 | 0.614
9 | CCc1cccc(C(=O)c2sc(Nc3ccc(OCCN(C)C)cc3)nc2N)c1 [Example 52, [4-Amino-2-[4-(2-dimethylamino-ethoxy)-phenylamino]-thiazol-5-yl]-(3-ethyl-phenyl)-methanone] | 0.027 | 1.21 | 3.23 | 0.526
10 | CCc1cccc(C(=O)c2sc(Nc3ccc(OCCN4CCCC4)cc3)nc2N)c1 [Example 53, [4-Amino-2-[4-(2-pyrrolidin-1-yl-ethoxy)-phenylamino]-thiazol-5-yl]-(3-ethyl-phenyl)-methanone] | 0.022 | 0.93 | 2.99 | 0.402
11 | CN(C)CCOc1ccc(Nc2nc(N)c(C(=O)c3cccc([N+](=O)[O-])c3)s2)cc1 [Example 54, [4-Amino-2-[4-(2-dimethylamino-ethoxy)-phenylamino]-thiazol-5-yl]-(3-nitro-phenyl)-methanone] | 0.036 | 1.24 | 0.381 | 1.64
12 | Nc1nc(Nc2ccc(OCCN3CCCC3)cc2)sc1C(=O)c1ccc2c(c1)OCO2 [Example 57, [4-Amino-2-[4-(2-pyrrolidin-1-yl-ethoxy)-phenylamino]-thiazol-5-yl]-benzo[1,3]dioxol-5-yl-methanone] | 0.066 | 4.89 | 0.376 | 2.92
13 | CCc1cccc(C(=O)c2sc(Nc3ccc(OCC(C)(C)N(C)C)cc3)nc2N)c1 [Example 61, [4-Amino-2-[4-(2-dimethylamino-2-methyl-propoxy)-phenylamino]-thiazol-5-yl]-(3-ethyl-phenyl)-methanone] | 0.046 | 1.56 | 1.21 | 0.954
14 | CCOc1cccc(C(=O)c2sc(Nc3ccc(OCCN4CCCC4)cc3)nc2N)c1 [Example 62, [4-Amino-2-[4-(2-pyrrolidin-1-yl-ethoxy)-phenylamino]-thiazol-5-yl]-(3-ethoxy-phenyl)-methanone] | 0.033 | 4.45 | 1.81 | 1.3
15 | CCc1cccc(C(=O)c2sc(Nc3ccc(OC[C@@H](C)N(C)C)cc3)nc2N)c1 [Example 63, (R)-[4-Amino-2-[4-(2-dimethylamino-propoxy)-phenylamino]-thiazol-5-yl]-(3-ethyl-phenyl)-methanone] | 0.08 | 1.9 | 2.57 | 0.623
16 | CN(C)CCOc1ccc(Nc2nc(N)c(C(=O)c3cccc(Br)c3)s2)cc1 [Example 65, [4-Amino-2-[4-(2-dimethylamino-ethoxy)-phenylamino]-thiazol-5-yl]-(3-bromo-phenyl)-methanone] | 0.085 | 1.69 | 1.07 | 3.24
17 | CCc1cccc(C(=O)c2sc(Nc3ccc(OC[C@@H](C)N4CCCC4)cc3)nc2N)c1 [Example 67, (R)-[4-Amino-2-[4-(2-pyrrolidin-1-yl-propoxy)-phenylamino]-thiazol-5-yl]-(3-ethyl-phenyl)-methanone] | 0.07 | 1.48 | 2.76 | 0.846
